Source: ChEMBL document CHEMBL4406823 (Eur J Med Chem, 2019)
Calls of active or inactive are those of the source. The calls are words filed in the database; no cut-off is given here.

Key:
[1] = Cytotoxicity against human astrocytes assessed as reduction in cell viability incubated for 72 hrs by MTT assay; assay type: cell-based, Astrocyte
CCRF-CEM = experiment: Antiproliferative activity against human CEM cells assessed as inhibition of cell growth incubated for 72 hrs by MTT assay; assay type: functional
[2] = Antiproliferative activity against human CEM/VBL100 cells overexpressing P-gp assessed as inhibition of cell growth incubated for 72 hrs by MTT assay; assay type: functional; conditions: CEM/VBL100, 72 h
MDA-MB-231 [3] = experiment: Antiproliferative activity against human MDA-MB-231 cells assessed as inhibition of cell proliferation incubated for 72 hrs by MTT assay; assay type: functional, cell-based; conditions: MDA-MB-231, 72 h
HL-60 = experiment: Antiproliferative activity against human HL60 cells assessed as inhibition of cell proliferation incubated for 72 hrs by MTT assay; assay type: functional, cell-based; conditions: HL-60, 72 h
SEM cells = experiment: Antiproliferative activity against human SEM cells assessed as inhibition of cell proliferation incubated for 72 hrs by MTT assay; assay type: functional, cell-based
[4] = Cytotoxicity against human quiescent PBL assessed as reduction in cell viability incubated for 72 hrs by MTT assay; assay type: cell-based
[5] = Cytotoxicity against PHA-stimulated human PBL assessed as reduction in cell viability incubated for 72 hrs by MTT assay; assay type: cell-based
Tubulin = Tubulin (Bos taurus, UniProt Q6B856+Q862L2+Q862F3); experiment: Inhibition of bovine brain tubulin assembly using GTP as substrate incubated for 20 mins by spectrophotometric method
Tubulin (Bos taurus) [6] = molecular target: T1, Tubulin (Bos taurus) (UniProt Q6B856+Q862L2+Q862F3); experiment: Displacement of [3H]-colchicine from bovine brain tubulin at 5 uM incubated for 1 hr by relative to control
Tubulin (Bos taurus) [7] = molecular target: T1, Tubulin (Bos taurus); experiment: Displacement of [3H]-colchicine from bovine brain tubulin at 0.5 uM incubated for 1 hr by relative to control
MDA-MB-231 [8] = experiment: Induction of cell cycle arrest in human MDA-MB-231 cells assessed as increase in accumulation of cells at G2/M phase at 10 nM incubated for 24 hrs by PI staining based flow cytometric analysis relative to control; assay type: functional
MDA-MB-231 [9] = experiment: Induction of cell cycle arrest in human MDA-MB-231 cells assessed as reduction in accumulation of cells at G1 phase at 10 to 100 nM incubated for 24 hrs by PI staining based flow cytometric analysis; assay type: functional
MDA-MB-231 [10] = experiment: Induction of cell cycle arrest in human MDA-MB-231 cells assessed as reduction in accumulation of cells at S phase at 10 to 100 nM incubated for 24 hrs by PI staining based flow cytometric analysis; assay type: functional
MDA-MB-231 [11] = experiment: Induction of cell cycle arrest in human MDA-MB-231 cells assessed as increase in p21 protein expression level at 50 to 100 nM incubated for 24 to 48 hrs by western blot analysis; assay type: functional, cell-based
MDA-MB-231 [12] = experiment: Induction of cell cycle arrest in human MDA-MB-231 cells assessed as reduction in cdc25c protein expression at 50 nM incubated for 24 to 48 hrs by western blot analysis; assay type: functional, cell-based
MDA-MB-231 [13] = experiment: Induction of cell cycle arrest in human MDA-MB-231 cells assessed as effect on cyclin B protein expression at 50 to 100 nM incubated for 24 to 48 hrs by western blot analysis; assay type: functional, cell-based
MDA-MB-231 [14] = experiment: Induction of apoptosis in human MDA-MB-231 cells at 50 nM incubated for 24 to 48 hrs by annexin V-FITC/propidium iodide staining-based flow cytometry analysis; assay type: functional, cell-based
MDA-MB-231 [15] = experiment: Induction of mitochondrial membrane depolarization in human MDA-MB-231 cells at 50 to 100 nM incubated for 24 to 48 hrs by JC1 staining based flow cytometric method; assay type: functional, cell-based
MDA-MB-231 [16] = experiment: Induction of ROS generation in human MDA-MB-231 cells at 50 to 100 nM incubated for 24 to 48 hrs by H2-DCFDA staining based flow cytometric method; assay type: functional, cell-based
MDA-MB-231 [17] = experiment: Induction of apoptosis in human MDA-MB-231 cells assessed as activation of PARP cleavage at 50 to 100 nM incubated for 48 hrs by Western blot analysis; assay type: functional, cell-based
MDA-MB-231 [18] = experiment: Induction of apoptosis in human MDA-MB-231 cells assessed as reduction in Mcl1 protein expression at 50 nM incubated for 24 hrs by Western blot analysis; assay type: functional, cell-based
MDA-MB-231 [19] = experiment: Induction of apoptosis in human MDA-MB-231 cells assessed as reduction in XIAP protein expression at 50 to 100 nM incubated for 24 to 48 hrs by Western blot analysis; assay type: functional, cell-based
MDA-MB-231 [20] = experiment: Inhibition of cell migration in human MDA-MB-231 cells at 5 nM incubated for 24 to 48 hrs by wound healing assay; assay type: functional, cell-based
E0771 [21] = experiment: Antitumour activity against mouse E0771 cells allografted in ip dosed C57BL/6 mouse assessed as reduction in tumor burden administrated every other day by caliper method; assay type: functional, organism-based
E0771 [22] = experiment: Antitumour activity against mouse E0771 cells allografted in C57BL/6 mouse assessed as reduction in tumor burden at 5.0 mg/kg, ip administrated every other day by caliper method; assay type: functional, organism-based
E0771 [23] = experiment: Antitumour activity against mouse E0771 cells allografted in C57BL/6 mouse assessed as reduction in tumor mass at 5.0 to 15 mg/kg, ip administrated for every other day by caliper method; assay type: functional, organism-based
[24] = Toxicity in C57BL/6 mouse allografted with mouse E0771 cells assessed as change in body weight at 15 mg/kg, ip administered every other day; assay type: organism-based; conditions: in vivo
HeLa = experiment: cells; conditions: Homo sapiens, 72 h
Description: Antiproliferative activity against human HeLa cells assessed as inhibition of cell proliferation incubated for 72 hrs by MTT assay

HT-29 = experiment: cells; conditions: Homo sapiens, HT-29, 72 h
Description: Antiproliferative activity against human HT-29 cells assessed as inhibition of cell proliferation incubated for 72 hrs by MTT assay

MCF7 = experiment: cells; conditions: Homo sapiens, MCF7, 72 h
Description: Antiproliferative activity against human MCF7 cells assessed as inhibition of cell proliferation incubated for 72 hrs by MTT assay

MDA-MB-231 [25] = experiment: Induction of cell cycle arrest in human MDA-MB-231 cells assessed as reduction in cdc2 dephosphorylation level at 50 to 100 nM incubated for 24 to 48 hrs by western blot analysis

CCOc1ccc(-c2n[nH]cc2-c2cc(OC)c(OC)c(OC)c2)cc1
GI50 at 72 h [1]: > 10000 nM | GI50 (CCRF-CEM): 0.35 nM | GI50 [2]: 0.52 nM | IC50 (MDA-MB-231 [3]): 0.7 nM | IC50 (HL-60): 0.25 nM | IC50 (SEM cells): 0.06 nM | GI50 at 72 h [4]: > 10000 nM | GI50 at 72 h [5]: > 10000 nM | IC50 (Tubulin): 350 nM | inhibition (Tubulin (Bos taurus) [6]): 96% | inhibition (Tubulin (Bos taurus) [7]): 90% | Activity (MDA-MB-231 [8]): 60% | Activity (MDA-MB-231 [9]): Active | Activity (MDA-MB-231 [10]): Active | Activity (MDA-MB-231 [11]): Active | Activity (MDA-MB-231 [12]): Active | Activity (MDA-MB-231 [13]): inactive | Activity (MDA-MB-231 [14]): Active | Activity (MDA-MB-231 [15]): Active | Activity (MDA-MB-231 [16]): Active | Activity (MDA-MB-231 [17]): Active | Activity (MDA-MB-231 [18]): Active | Activity (MDA-MB-231 [19]): Active | inhibition (MDA-MB-231 [20]): Active | inhibition (E0771 [21]): Dose-dependent effect | inhibition (E0771 [22]): Active | inhibition (E0771 [23]): Active | Activity [24]: Non-Toxic | IC50 (HeLa): 0.07 nM | IC50 (HT-29): 0.06 nM | IC50 (MCF7): 0.21 nM | Activity (MDA-MB-231 [25]): Active
